{"source": "patent US20240307480A1", "about": "“MELFLUFEN FOR USE IN THE TREATMENT OF MULTIPLE MYELOMA” (Oncopeptides AB, priority 2021, published 2024)", "system": "patients with relapsed refractory multiple myeloma (RRMM) refractory to lenalidomide", "experiment": "Randomized, controlled, open-label, Phase 3 multicenter study of melflufen+dexamethasone versus pomalidomide+dexamethasone (Example 1)", "format": "in vivo, human", "details": "for OS / PFS: no stem cell transplant", "procedure": "Patients received either melflufen+dexamethasone or pomalidomide+dexamethasone.\nPatients were randomized to either one of two arms (see Table 1 below): • Arm A: Melphalan flufenamide (Melflufen) 40 mg on Day 1 and dexamethasone 40 mg on Days 1, 8, 15 and 22 of each 28-day cycle. • Arm B: Pomalidomide 4 mg daily on Days 1 to 21 and dexamethasone 40 mg on Days 1, 8, 15 and 22 of each 28-day cycle.\nDose modifications and delays in therapy were implemented based on patient tolerability as detailed in the protocol. In the event of a cycle delay, unrelated to dexamethasone toxicity, it was recommended to continue dexamethasone weekly.\n• Study Type: Interventional (Clinical Trial) • Actual Enrollment: 495 participants • Allocation: Randomized • Intervention Model: Parallel Assignment • Masking: Single (Outcomes Assessor) • Primary Purpose: Treatment • Official Title: A Randomized, Controlled, Open-label, Phase 3 Study of Melflufen/Dexamethasone Compared With Pomalidomide/Dexamethasone for Patients With Relapsed Refractory Multiple Myeloma Who Are Refractory to Lenalidomide\n• 1. Progression Free Survival (PFS) [Time Frame: From randomization to time of progression, or, if no progression, 24 months after end of treatment]: To compare the PFS of melflufen plus dexamethasone (Arm A) versus pomalidomide plus dexamethasone (Arm B) as assessed by the Independent Review Committee (IRC) according to the International Myeloma Working Group Uniform Response Criteria (IMWG-URC)\n• 1. […] Overall Survival (OS) [Time Frame: From randomization until end of study (2 years after confirmed progression)]: To assess and compare OS in Arm A versus Arm B • 4. Safety and Tolerability: Number of patients with treatment-emergent adverse events, including clinical laboratory and vital signs abnormalities, as assessed by CTCAE v4.0 [Time Frame: From start of dosing until 30 days after last dose]: To assess and compare safety and tolerability in Arm A versus Arm B. Number of patients with treatment-emergent adverse events, including clinical laboratory and vital signs abnormalities, as assessed by CTCAE v4.0 will be presented. No formal statistical analysis will be performed for safety endpoints.\n• 1. Male or female, age 18 years or older • 2. A prior diagnosis of multiple myeloma with documented disease progression requiring further treatment at time of screening • 3. Measurable disease defined as any of the following: • Serum monoclonal protein ≥0.5 g/dl by protein electrophoresis. • ≥200 mg/24 hours of monoclonal protein in the urine on 24-hour electrophoresis • Serum free light chain ≥10 mg/dl AND abnormal serum kappa to lambda free light chain ratio • 4. Received 2-4 prior lines of therapy, including lenalidomide and a PI, either sequential or in the same line, and is refractory (relapsed and refractory or refractory) to both the last line of therapy and to lenalidomide (≥10 mg) administered within 18 months prior to randomization. Refractory to lenalidomide is defined as progression while on lenalidomide therapy or within 60 days of last dose, following at least 2 cycles of lenalidomide with at least 14 doses of lenalidomide per cycle • 5. Life expectancy of ≥6 months • 6. Eastern Cooperative Oncology Group (ECOG) performance status ≤2 • 7. […] Participants must agree to ongoing pregnancy testing. All patients must be willing to comply with all requirements of the USA pomalidomide Risk Evaluation and Mitigation Strategy (REMS) program or the pomalidomide Pregnancy Prevention Plan (PPP) • 8. Ability to understand the purpose and risks of the study and provide signed and dated informed consent • 9. 12-lead Electrocardiogram (ECG) with QT interval calculated by Fridericia Formula (QTcF) interval of ≤470 msec Fridericia Formula • 10. […] Must be able to take antithrombotic prophylaxis • 12. Must have, or be willing to have an acceptable central catheter.", "key": {"[1]": {"details": "excluding patients who had received a stem cell transplant and progressed in under 36 months (melflufen+dex n=145, pomalidomide+dex n=148)"}, "[2]": {"details": "subgroup patients under 65 years"}, "[3]": {"details": "patients 75 or over who received melflufen, pomalidomide comparator worded as patients who had not received a stem cell transplant"}, "[4]": {"details": "patients who had not received a stem cell transplant as a past treatment (melflufen n=121, pomalidomide n=129), each arm with dexamethasone"}, "[5]": {"details": "stem cell transplant at least 5 years ago, melflufen in relation to pomalidomide, value below 1 favours melflufen"}}, "data": [{"compound": "CCOC(=O)[C@H](Cc1ccc(F)cc1)NC(=O)[C@@H](N)Cc1ccc(N(CCCl)CCCl)cc1.Cl", "note": "[melflufen, L-melphalanyl-4-fluoro-L-phenylalanine ethyl ester]", "values": [{"measurement": "median overall survival (OS)", "setting": "[1]", "value": 23.6, "unit": "months"}, {"measurement": "OS", "setting": "subgroup 64 to 74 years", "value": 22.2}, {"measurement": "PFS", "setting": "subgroup 64 to 74 years", "value": 9.3}, {"measurement": "OS", "setting": "subgroup 75 years and over", "value": 14.8}, {"measurement": "PFS", "setting": "subgroup 75 years and over", "value": 9.3}, {"measurement": "OS", "setting": "subgroup age under 75 years", "value": 22.2}, {"measurement": "PFS", "setting": "subgroup age under 75 years", "value": 9.4}, {"measurement": "OS", "setting": "[2]", "value": 27.5}, {"measurement": "PFS", "setting": "[2]", "value": 10.8}, {"measurement": "median PFS", "setting": "[3]", "value": 9.4, "unit": "months"}, {"measurement": "median overall survival (OS)", "setting": "[3]", "value": 21.6, "unit": "months"}, {"measurement": "median overall survival (OS)", "setting": "[4]", "value": 21.6, "unit": "months"}, {"measurement": "median progression free survival (PFS)", "setting": "[4]", "value": 9.3, "unit": "months"}, {"measurement": "hazard ratio (PFS)", "setting": "stem cell transplant 2.5 to 5 years ago, melflufen in relation to pomalidomide, value below 1 favours melflufen", "value": 0.83}, {"measurement": "OS hazard ratio", "setting": "[5]", "value": 0.87}, {"measurement": "PFS hazard ratio", "setting": "[5]", "value": 0.76}]}, {"compound": "Nc1cccc2c1C(=O)N(C1CCC(=O)NC1=O)C2=O", "note": "(stereo not shown) [pomalidomide, reference compound]", "values": [{"measurement": "median overall survival (OS)", "setting": "[1]", "value": 19.8, "unit": "months"}, {"measurement": "OS", "setting": "subgroup 64 to 74 years", "value": 15.0}, {"measurement": "PFS", "setting": "subgroup 64 to 74 years", "value": 3.9}, {"measurement": "OS", "setting": "subgroup 75 years and over", "value": 8.1}, {"measurement": "PFS", "setting": "subgroup 75 years and over", "value": 4.9}, {"measurement": "OS", "setting": "subgroup age under 75 years", "value": 18.2}, {"measurement": "PFS", "setting": "subgroup age under 75 years", "value": 4.3}, {"measurement": "PFS", "setting": "[2]", "value": 4.7}, {"measurement": "median PFS", "setting": "[3]", "value": 4.6, "unit": "months"}, {"measurement": "median overall survival (OS)", "setting": "[3]", "value": 8.3, "unit": "months"}, {"measurement": "median overall survival (OS)", "setting": "[4]", "value": 16.5, "unit": "months"}, {"measurement": "median progression free survival (PFS)", "setting": "[4]", "value": 4.6, "unit": "months"}]}]}
